By IC50 is commonly meant the concentration at which inhibition is half-maximal. A word on the melting point: it is the temperature of the solid-liquid transition. In general, inhibition refers to the relative decrease from the control value, in per cent.

The values below come from publication PMC5386672, “Structure-guided design of purine-based probes for selective Nek2 inhibition” (Oncotarget, 2016).

Some results are limits rather than exact numbers.

In one data set the target is T1, Nek2 (Homo sapiens, UniProt P51955).
T1 construct: purchased Invitrogen
T1 sequence (P51955 1-445): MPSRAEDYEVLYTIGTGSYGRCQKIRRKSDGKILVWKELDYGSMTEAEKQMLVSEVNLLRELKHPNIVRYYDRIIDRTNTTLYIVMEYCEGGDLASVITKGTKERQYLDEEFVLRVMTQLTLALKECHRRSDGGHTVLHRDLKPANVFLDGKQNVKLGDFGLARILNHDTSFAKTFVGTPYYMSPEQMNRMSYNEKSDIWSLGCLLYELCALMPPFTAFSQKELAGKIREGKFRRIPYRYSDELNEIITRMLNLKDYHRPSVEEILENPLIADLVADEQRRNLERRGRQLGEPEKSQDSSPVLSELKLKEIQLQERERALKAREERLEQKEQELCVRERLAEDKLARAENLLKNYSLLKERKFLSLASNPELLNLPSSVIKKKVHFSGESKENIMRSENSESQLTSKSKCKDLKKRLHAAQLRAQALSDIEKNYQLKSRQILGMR
Briefly: Nek2 Caliper kinase inhibition assay. Format: biochemical. The following applies: 30 μM ATP; for inhibition at 50 µM: @ 50 μM compound.

A further data set has as its target CDK2 (Homo sapiens, UniProt P24941). Kind of data set: CDK2 kinase inhibition assay. Type of data set: biochemical. As to conditions: 12.5 μM ATP.

On to `CC(=O)Nc1cccc(Nc2nc(OCC3CCCCC3)c3nc[nH]c3n2)c1` [Compound 27, N-(3-(6-(Cyclohexylmethoxy)-9H-purin-2-ylamino)phenyl)acetamide], for which the IC50 against Nek2 (Caliper assay) is 8300 nM; at CDK2 it was 880 nM.
In the case of `O=[N+]([O-])c1cccc(Nc2nc(OCC3CCCCC3)c3nc[nH]c3n2)c1` [Compound 20, 6-(Cyclohexylmethoxy)-N-(3-nitrophenyl)-9H-purin-2-amine], the melting point is 217 to 218 °C. Besides, the IC50 against Nek2 (Caliper assay) was over 50000 nM. The molecule also had an IC50 against CDK2 of 890 nM.
Consider `CN(C)CCCCNC(=O)c1cccc(Nc2nc(OCC3CCCCC3)c3nc[nH]c3n2)c1` [Compound 33, 3-(6-Cyclohexylmethoxy-9H-purin-2-ylamino)-N-(4-dimethylaminobutyl)benzamide], for which the melting point lay in the range of 125 to 127 °C. Further, 3800 nM corresponded to half-maximal inhibition against Nek2 (Caliper assay) (IC50). On CDK2, this molecule gave an IC50 of 730 nM.
Turning to `CC(C)N(C(=O)Cc1cccc(Nc2nc(OCC3CCCCC3)c3nc[nH]c3n2)c1)C(C)C` [Compound 38], the melting point is 126 to 127 °C. On Nek2 (Caliper assay), the IC50 came out at 21000 nM. In addition, the IC50 against CDK2 came out at 3200 nM.
In the case of `CCCNC(=O)Cc1cccc(Nc2nc(OCC3CCCCC3)c3nc[nH]c3n2)c1` [Compound 39], the melting point was 141 to 142 °C (dec.). Also, on Nek2, the inhibition at 50 µM is 82%. This molecule had an IC50 against CDK2 of 740 nM.
In turn, `CN(C)[C@@H]1CCN(/C=C/c2nc(Nc3ccccc3)nc3[nH]cnc23)C1` [Compound 73, (R, E)-6-(2-(3-(Dimethylamino)pyrrolidin-1-yl)vinyl)-N-phenyl-9H-purin-2-amine] showed a melting point of 136 to 138 °C. Besides, at Nek2 (Caliper assay), the IC50 is 3000 nM. Further, the IC50 at CDK2 turned out to be 6900 nM.
On to `CN(C)S(=O)(=O)Cc1cccc(Nc2nc(OCC3CCCCC3)c3nc[nH]c3n2)c1` [Compound 48, [3-(6-Cyclohexylmethoxy-9H-purin-2-ylamino)-phenyl]-N,N-dimethylmethanesulfonamide], for which the IC50 against Nek2 (Caliper assay) stood at 830 nM; at CDK2, 770 nM.
Consider `O=C(NCCN1CCCCC1)Nc1ccc(Nc2nc(OCC3CCCCC3)c3nc[nH]c3n2)cc1` [Compound 17, 1-(4-(6-(Cyclohexylmethoxy)-9H-purin-2-ylamino)phenyl)-3-(2-(piperidin-1-yl)ethyl)urea], for which the half-inhibitory concentration (IC50) on Nek2 (Caliper assay) amounted to 1100 nM; against CDK2, 860 nM.
For `C(=C\N1CCCC1)/c1nc(Nc2ccccc2)nc2[nH]cnc12` [Compound 69, (E)-N-Phenyl-6-(2-(pyrrolidin-1-yl)vinyl)-9H-purin-2-amine], the melting point is 138 to 140 °C. Further, the midpoint of inhibition against Nek2 (Caliper assay), the IC50, lay at 340 nM. Besides, on CDK2, 5800 nM corresponded to half-maximal inhibition (IC50).
For the molecule `CCOc1nc(Nc2cccc(CC(=O)NCCCN(C)C)c2)nc2[nH]cnc12` [Compound 7], the IC50 amounted to 890 nM on Nek2 (Caliper assay) and 5600 nM against CDK2.
Consider `O=C(O)c1cccc(Nc2nc(OCC3CCCCC3)c3nc[nH]c3n2)c1` [Compound 23, 3-(6-Cyclohexylmethoxy-9H-purin-2-ylamino)benzoic acid], for which the melting point is 182 to 184 °C (dec.). This molecule registered an IC50 on Nek2 (Caliper assay) of 4300 nM. The molecule also had an IC50 against CDK2 of 990 nM.
Take `NS(=O)(=O)Cc1cccc(Nc2nc(OCC3CCCCC3)c3nc[nH]c3n2)c1` [Compound 53, [3-(6-Cyclohexylmethoxy-9H-purin-2-ylamino)phenyl]methanesulfonamide]: the melting point was 134 to 135 °C. Also, the inhibition at 50 µM against Nek2 was determined as 81%. Besides, half-maximal inhibition at CDK2 (IC50) was put at 240 nM.
Regarding `O=C(Cc1cccc(Nc2nc(OCC3CCCCC3)c3nc[nH]c3n2)c1)NCCCO` [Compound 40], the melting point is 132 to 133 °C. This molecule yielded an IC50 at Nek2 (Caliper assay) of 1300 nM. Half-maximal inhibition on CDK2 (IC50) was put at 800 nM.
For `CN(C(=O)Cc1cccc(Nc2nc(OCC3CCCCC3)c3nc[nH]c3n2)c1)C1CCCCC1` [Compound 37], the melting point is 134 to 135 °C. At Nek2, this molecule came in with an inhibition at 50 µM of 26%. Besides, the concentration for half-maximal inhibition (IC50) at CDK2 came out at 1600 nM.
Molecule `O=[N+]([O-])c1ccc(Nc2nc(OCC3CCCCC3)c3nc[nH]c3n2)cc1` [Compound 19, 6-(Cyclohexylmethoxy)-N-(4-nitrophenyl)-9H-purin-2-amine] had a melting point of 180 to 181 °C. This molecule gave a half-inhibitory concentration (IC50) on Nek2 (Caliper assay) of over 50000 nM. The same molecule gave an IC50 at CDK2 of 1900 nM.
For `O=C(NCCN1CCOCC1)Nc1ccc(Nc2nc(OCC3CCCCC3)c3nc[nH]c3n2)cc1` [Compound 16, 1-(4-(6-(Cyclohexylmethoxy)-9H-purin-2-ylamino)phenyl)-3-(2-morpholinoethyl)urea], the melting point lay within 161 to 163 °C. This molecule also returned an IC50 against Nek2 (Caliper assay) of 2200 nM. For the same molecule, inhibition at CDK2 was half-maximal at 1100 nM (IC50).
`c1ccc(Nc2nc(OCC3CCCCC3)c3nc[nH]c3n2)cc1` [2-aminophenyl-6-(cyclohexylmethoxy)-9H-purine] gave an IC50 against Nek2 (Caliper assay) of 22000 nM.
`O=C(Nc1ccc(Nc2nc(OCC3CCCCC3)c3nc[nH]c3n2)cc1)c1ccccc1` [Compound 29, N-(4-(6-(Cyclohexylmethoxy)-9H-purin-2-ylamino)phenyl)benzamide] yielded an inhibition at 50 µM against Nek2 of 36%. This molecule had an IC50 against CDK2 of 2900 nM.
`CN1CCN(CCCNC(=O)Cc2cccc(Nc3nc(OCC4CCCCC4)c4nc[nH]c4n3)c2)CC1` [Compound 46, 2-[3-(6-Cyclohexylmethoxy-9H-purin-2-ylamino)phenyl]-N-[3-(4-methylpiperazin-1-yl)propyl]acetamide]: the melting point fell in the range of 157 to 158 °C. The molecule also displayed an IC50 against Nek2 (Caliper assay) of 3600 nM. The molecule also showed an IC50 against CDK2 of 2400 nM.
`O=S(=O)(Cc1cccc(Nc2nc(OCC3CCCCC3)c3nc[nH]c3n2)c1)N1CCNCC1` [Compound 50, 1-(3-(6-Cyclohexylmethoxy-9H-purin-2-ylamino)phenylmethanesulfonyl)piperazine] came in with a melting point of 127 to 128 °C. This molecule displayed an IC50 against Nek2 (Caliper assay) of 2600 nM. Moreover, at CDK2, the IC50 came to 450 nM.
As to `CN(C)CCNC(=O)Cc1cccc(Nc2nc(OCC3CCCCC3)c3nc[nH]c3n2)c1` [Compound 43, 2-[3-(6-Cyclohexylmethoxy-9H-purin-2-ylamino)phenyl]-N-(2-dimethylaminoethyl)acetamide], the melting point fell in the range of 161 to 162 °C. At Nek2 (Caliper assay), this molecule came in with an IC50 of 1000 nM. Besides, the IC50 against CDK2 amounted to 590 nM.
`O=C(Cc1cccc(Nc2nc(OCC3CCCCC3)c3nc[nH]c3n2)c1)NCCCc1ccccc1` [Compound 47, 2-[3-(6-Cyclohexylmethoxy-9H-purin-2-ylamino)phenyl]-N-(3-phenylpropyl)acetamide] gave a melting point of 154 to 155 °C. For the same molecule, at Nek2 (Caliper assay), the “Nek2 IC50” value is “Inactive”. Half-maximal inhibition against CDK2 (IC50) was put at 10000 nM.
`CN(C)CCCCNC(=O)Cc1cccc(Nc2nc(OCC3CCCCC3)c3nc[nH]c3n2)c1` [Compound 45, 2-[3-(6-Cyclohexylmethoxy-9H-purin-2-ylamino)phenyl]-N-(4-dimethylaminobutyl)acetamide] showed a melting point of 125 to 127 °C. On Nek2 (Caliper assay), the IC50 came to 700 nM. Also, the IC50 against CDK2 came out at 860 nM.
The molecule `CNC(=O)c1cccc(Nc2nc(OCC3CCCCC3)c3nc[nH]c3n2)c1` [Compound 10, 3-(6-Cyclohexylmethoxy-9H-purin-2-ylamino)-N-methylbenzamide] yielded a melting point of 252 to 254 °C. In addition, at Nek2 (Caliper assay), the IC50 is 15000 nM. On CDK2, this molecule came in with an IC50 of 830 nM.
As to `CN(C)C(=S)c1cccc(Nc2nc(OCC3CCCCC3)c3nc[nH]c3n2)c1` [Compound 12, 3-(6-Cyclohexylmethoxy-9H-purin-2-ylamino)-N,N-dimethylthiobenzamide], the melting point is 231 to 232 °C (dec.). The same molecule showed an IC50 on Nek2 (Caliper assay) of 5200 nM. The molecule also returned an IC50 on CDK2 of 5700 nM.
As for `NC(=S)c1cccc(Nc2nc(OCC3CCCCC3)c3nc[nH]c3n2)c1` [Compound 13, 3-(6-Cyclohexylmethoxy-9H-purin-2-ylamino)thiobenzamide], the melting point is 148 to 149 °C (dec.). 50 µM produced 46% inhibition against Nek2. Moreover, the IC50 against CDK2 is 330 nM.
With `CC(C)(C)C(=O)Nc1ccc(Nc2nc(OCC3CCCCC3)c3nc[nH]c3n2)cc1` [Compound 28, N-(4-(6-(Cyclohexylmethoxy)-9H-purin-2-ylamino)phenyl)pivalamide], the IC50 on Nek2 (Caliper assay) amounted to 24000 nM; on CDK2, 9700 nM.
In turn, `CCOc1nc(Nc2cccc(CC(=O)NCCCN(C)C)c2)nc2[nH]cnc12` [Compound 59, N-(3-Dimethylaminopropyl)-2-[3-(6-ethoxy-9H-purin-2-ylamino)phenyl]acetamide] yielded a melting point of 178 to 179 °C.
Regarding `CC(C)CCNC(=O)Cc1cccc(Nc2nc(OCC3CCCCC3)c3nc[nH]c3n2)c1` [Compound 44, 2-[3-(6-Cyclohexylmethoxy-9H-purin-2-ylamino)phenyl]-N-(3-methylbutyl)acetamide], 50 µM produced 29% inhibition against Nek2. For the same molecule, the midpoint of inhibition against CDK2, the IC50, lay at 3700 nM.
For the molecule `NS(=O)(=O)c1ccc(Nc2nc(OCC3CCCCC3)c3nc[nH]c3n2)cc1` [Compound 6], the IC50 against Nek2 (Caliper assay) was 12000 nM.
Consider `O=S(=O)(Cc1cccc(Nc2nc(OCC3CCCCC3)c3nc[nH]c3n2)c1)N1CCCCC1` [Compound 49, 1-(3-(6-Cyclohexylmethoxy-9H-purin-2-ylamino)phenylmethanesulfonyl)piperidine], for which the inhibition at 50 µM against Nek2 was 53%. Moreover, the midpoint of inhibition at CDK2, the IC50, lay at 1600 nM.
